Assay results taken from US5830897A, “α- and β-amino acid hydroxyethylamino sulfonamides useful as retroviral protease inhibitors” (G. D. Searle & Co., priority 1995, dated 1998).
Where two headings read alike, the source gives them in different places.

Legend:
HIV protease = target: T1, HIV protease (Human immunodeficiency virus type 1 group M subtype B, UniProt P04585); experiment: biochemical
T1 construct: HIV protease is diluted in the assay buffer to a final enzyme concentration of 12.3 nanomolar, based on a molecular weight of 10,780
Procedure: The enzyme method is described below. […] The positive control is MVT-101 (Miller, M. et al, Science, 246, 1149 (1989)] The assay conditions are as follows:
Assay buffer: 20 mM sodium phosphate, pH 6.4
The above described substrate is dissolved in DMSO, then diluted 10 fold in assay buffer. Final substrate concentration in the assay is 80 μM.
The final concentration of DMSO is 14% and the final concentration of glycerol is 18%. The test compound is dissolved in DMSO and diluted in DMSO to 10× the test concentration; 10 μl of the enzyme preparation is added, the materials mixed and then the mixture is incubated at ambient temperature for 15 minutes. The enzyme reaction is initiated by the addition of 40 μl of substrate. The increase in fluorescence is monitored at 4 time points (0, 8, 16 and 24 minutes) at ambient temperature. Each assay is carried out in duplicate wells.

[1] = Intrinsic toxicity of test compound in CEM cells without virus (MTT); assay type: cell-based; details: human, Table 16, read-out: TD50 (the source's name)
Excerpt: Methods, 20, 309-321 (1988).

[2] = Table 15A, second part (Ex., Table, Entry)
[3] = Table 15A, @ 1 uM, read-out: % inhib
[4] = Table 15A, @ 10 uM, read-out: % inhib
[5] = Table 5B, @ 1 μM, read-out: % inhibition

CC(C)CCN(C[C@@H](O)[C@H](Cc1ccccc1)NC(=O)OCc1ccccc1)S(=O)(=O)c1ccccc1 [Table 1A Entry 39]
IC50 (HIV protease; [2]): 16 nM

CC(C)CCN(C[C@@H](O)[C@H](Cc1ccccc1)NC(=O)OCc1ccccc1)S(C)(=O)=O [Table 1A Entry 41]
inhibition at 1 µM (HIV protease; [3]): 24%
inhibition at 10 µM (HIV protease; [4]): 74%

CC(C)CCN(C[C@@H](O)[C@H](Cc1ccccc1)NC(=O)OCc1ccccc1)S(=O)(=O)C(F)(F)F [Table 1A Entry 50]
inhibition at 1 µM (HIV protease; [3]): 42%
inhibition at 10 µM (HIV protease; [4]): 89%

CC(C)CN(C[C@@H](O)[C@H](Cc1ccccc1)NC(=O)OCc1ccccc1)S(C)(=O)=O [Table 1A Entry 51]
inhibition at 1 µM (HIV protease; [3]): 31%
inhibition at 10 µM (HIV protease; [4]): 76%

CC(C)CCN(C[C@@H](O)[C@H](Cc1ccccc1)NC(=O)OCc1ccccc1)S(=O)(=O)CCl [Table 1A Entry 52]
inhibition at 1 µM (HIV protease; [3]): 39%
inhibition at 10 µM (HIV protease; [4]): 81%

CC(C)CCN(C[C@@H](O)[C@H](Cc1ccccc1)NC(=O)OCc1ccccc1)S(=O)(=O)c1ccc(F)cc1 [Table 1a Entry 1]
IC50 (HIV protease; [2]): 11 nM

CC(C)CCN(C[C@@H](O)[C@H](Cc1ccccc1)NC(=O)OCc1ccccc1)S(=O)(=O)c1ccccc1[N+](=O)[O-] [Table 1a Entry 3]
inhibition at 1 µM (HIV protease; [3]): 38%
inhibition at 10 µM (HIV protease; [4]): 79%

CC(C)CCN(C[C@@H](O)[C@H](Cc1ccccc1)NC(=O)OCc1ccccc1)S(=O)(=O)c1ccc2ccccc2c1 [Table 1a Entry 4]
IC50 (HIV protease; [2]): 16 nM

CC(C)CCN(C[C@@H](O)[C@H](Cc1ccccc1)NC(=O)OCc1ccccc1)S(=O)(=O)Cc1ccccc1 [Table 1a Entry 6]
inhibition at 10 µM (HIV protease; [4]): 36%

CC(C)CN(C[C@@H](O)[C@H](Cc1ccccc1)NC(=O)OCc1ccccc1)S(=O)(=O)c1ccc(F)cc1 [Table 1a Entry 7]
IC50 (HIV protease; [2]): 9.6 nM

CC(C)CCN(C[C@@H](O)[C@H](Cc1ccccc1)NC(=O)C(NC(=O)CN(C)C)C(C)(C)C)S(C)(=O)=O (some centres unmarked) [Table 3 Entry 2]
inhibition at 0.1 µM (HIV protease; Table 15A, @ 0.1 uM): 38%
inhibition at 1 µM (HIV protease; [3]): 90%

COc1ccc(S(=O)(=O)N(CC(C)C)CC(O)C(Cc2ccccc2)NC(=O)c2ccc3[nH]ccc3c2)cc1 (centres unmarked) [Table 5A Entry 5]
IC50 (HIV protease; Table 5B): 26 nM

COc1ccc(S(=O)(=O)N(CC(C)C)CC(O)C(Cc2ccccc2)NC(=O)c2ccccc2S(C)(=O)=O)cc1 (centres unmarked) [Table 5A Entry 17]
inhibition at 10 µM (HIV protease; Table 5B, @ 10 μM, read-out: % inhibition): 59%

COc1ccc(S(=O)(=O)N(CC(C)C)CC(O)C(Cc2ccccc2)NC(=O)c2ccccc2CS(C)(=O)=O)cc1 (centres unmarked) [Table 5A Entry 20]
inhibition at 1 µM (HIV protease; [5]): 85%

COc1ccc(S(=O)(=O)N(CC(C)C)CC(O)C(Cc2ccccc2)NC(=O)c2ccc(CS(C)(=O)=O)cc2)cc1 (centres unmarked) [Table 5A Entry 22]
inhibition at 1 µM (HIV protease; [5]): 63%

COc1ccc(S(=O)(=O)N(CC(C)C)CC(O)C(Cc2ccccc2)NC(=O)c2ccccc2OC)cc1 (centres unmarked) [Table 5A Entry 29]
IC50 (HIV protease; Table 5B): 190 nM

CC(C)CCN(C[C@@H](O)[C@H](Cc1ccccc1)NC(=O)C(N)C(C)(C)C)S(=O)(=O)c1ccccc1 (some centres unmarked) [Table 11 Entry 1]
IC50 (HIV protease; [2]): 130 nM

CC(C)CCN(C[C@@H](O)[C@H](Cc1ccccc1)NC(=O)[C@@H](NC(=O)CBr)C(C)(C)C)S(=O)(=O)c1ccccc1 [Table 12 Entry 10]
IC50 (HIV protease; [2]): 3.3 nM

CC(C)CCN(C[C@@H](O)[C@H](Cc1ccccc1)NC(=O)[C@H](CC(N)=O)NC(=O)c1ccc2ccccc2n1)S(C)(=O)=O [Table 15A Entry 4]
IC50 (HIV protease; Table 15A, first part): 27 nM

CC(C)CCN(C[C@@H](O)[C@H](Cc1ccccc1)NC(=O)[C@H](CC(N)=O)NC(=O)c1ccc2ccccc2n1)S(C)(=O)=O [Table 16 Entry 4]
IC50 (HIV protease; Table 16, enzyme assay): 27 nM

CC(C)CCN(C[C@@H](O)[C@H](Cc1ccccc1)NC(=O)[C@@H](NC(=O)CN(C)C)C(C)(C)C)S(C)(=O)=O [Table 16 Entry 6]
CC50 [1]: 425 nM

CNC(=O)C[C@H](NC(=O)c1ccc2ccccc2n1)C(=O)N[C@@H](Cc1ccccc1)[C@H](O)CN(CCC(C)C)S(=O)(=O)c1ccccc1 [Table 16 Entry 7]
CC50 [1]: 39 nM

CC(C)CCN(C[C@@H](O)[C@H](Cc1ccccc1)NC(=O)c1ccccc1)S(=O)(=O)c1ccccc1 [Table 16 Entry 8]
CC50 [1]: 24 nM

CCC(C)[C@H](NC(=O)CN(C)C)C(=O)N[C@@H](Cc1ccccc1)[C@H](O)CN(CCC(C)C)S(=O)(=O)c1ccccc1 (some centres unmarked) [Table 16 Entry 14]
CC50 [1]: 55000 nM

COc1ccc(S(=O)(=O)N(CC(C)C)C[C@@H](O)[C@H](Cc2ccccc2)NC(=O)c2ccccc2)cc1 [Table 16 Entry 28]
IC50 (HIV protease; Table 16, enzyme assay): 14 nM

COc1ccc(S(=O)(=O)N(CC(C)C)C[C@@H](O)[C@H](Cc2ccccc2)NC(=O)c2ccccc2Cl)cc1 [Table 16 Entry 30]
IC50 (HIV protease; Table 16, enzyme assay): 6 nM

CCc1ccccc1C(=O)N[C@@H](Cc1ccccc1)[C@H](O)CN(CC(C)C)S(=O)(=O)c1ccc(OC)cc1 [Table 16 Entry 31]
IC50 (HIV protease; Table 16, enzyme assay): 10 nM

CC(C)CCN(C[C@@H](O)[C@H](Cc1ccccc1)NC(=O)OCc1ccccc1)S(=O)(=O)c1ccccc1 [drawing 314]
IC50 (HIV protease; Table 15A, first part): 16 nM

CC(C)CCN(C[C@@H](O)[C@H](Cc1ccccc1)NC(=O)OCc1ccccc1)S(=O)(=O)c1ccccc1 [drawing 326]
IC50 (HIV protease; Table 16, enzyme assay): 16 nM
